Active and inactive are the calls of the source. No cut-off for these calls is given here.

The target of this assay is Transcription factor E2F1 (Homo sapiens) (UniProt Q01094). In words: Inhibition of E2F1 transcriptional activity (unknown origin) expressed in HEK293 cells at 10 uM measured after 48 hrs by luciferase reporter gene assay. The class given is cell-based.
Sequence of Transcription factor E2F1 (Homo sapiens) (Q01094 whole entry): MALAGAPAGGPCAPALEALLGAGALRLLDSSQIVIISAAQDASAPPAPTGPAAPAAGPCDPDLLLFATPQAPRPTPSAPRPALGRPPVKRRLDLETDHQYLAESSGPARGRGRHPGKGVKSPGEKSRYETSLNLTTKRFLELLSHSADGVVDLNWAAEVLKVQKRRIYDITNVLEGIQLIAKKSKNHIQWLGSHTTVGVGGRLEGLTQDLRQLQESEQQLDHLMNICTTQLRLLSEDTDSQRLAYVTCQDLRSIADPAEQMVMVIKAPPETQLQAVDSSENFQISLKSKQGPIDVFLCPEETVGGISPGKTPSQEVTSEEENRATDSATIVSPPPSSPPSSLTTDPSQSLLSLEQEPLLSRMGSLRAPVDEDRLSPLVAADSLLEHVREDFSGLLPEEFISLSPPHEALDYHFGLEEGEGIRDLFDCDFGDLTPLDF
Regarding `CCOc1ccc([C@H](Nc2ccccn2)c2ccc3ccc(C)nc3c2O)cc1C`, the inhibition entry was “inactive”.
The same measure for `CCOc1ccc([C@@H](Nc2ccccn2)c2ccc3ccc(C)nc3c2O)cc1C`: “Active”; for `CCOc1ccc(C(Nc2ccccn2)c2ccc3ccc(C)nc3c2O)cc1C` (racemic): “Active”.

These data come from ChEMBL document CHEMBL4371079, “Improved synthesis, resolution, absolute configuration determination and biological evaluation of HLM006474 enantiomers” (Bioorg Med Chem Lett, 2019).
